For the assay, the system named is PHA-induced IL-2 release in IL-2 and IL-4 treated (steroid resistant) PBMCs. Kind of assay: IL-2/IL-4 induced steroid resistance model in PBMCs: dexamethasone inhibition of PHA-induced IL-2 release. In kind it is cell-based, human. Particulars: for PHA-induced IL-2 level: FIG. 5. Here is the method: J Immunol 2009; 183; 164-171). […] Following PBMCs stimulation with mitogen phytohaemagglutinin (PHA), there is a strong correlation between cytokine secretion levels and steroid resistance as well as steroid sensitivity in vitro. Addition of IL-2, IL-4 and TNF-reduce steroid sensitivity.
PBMCs (2×10^6) were incubated with or without IL-2 (13 ng/ml) and IL-4 (6.5 ng/ml) for 48 hours in RPMI-1640 medium containing 10% FCS and 2 mM glutamine. […] IL-2 and IL-4 stimulated PBMCs were also plated at a concentration of 10^6 cells/ml in 96-well plates ready for PHA (15 μg/mL, 24 hours) stimulation of cytokine release and detection by ELISA.
IL-2/4 induced steroid resistance in PBMCs, a well-recognized study model, was used to evaluate potential modifiers of steroid resistance and sensitivity. PBMCs from healthy smokers were collected. Corticosteroid insensitivity or resistance was induced by adding IL-2 and IL-4 in peripheral blood mononuclear cells (PBMCs) from healthy male smokers (n=˜11). […] IL-2 levels were quantified using ELISA.
J Immunol 2009; 183; 164-171).
IL-2 levels were quantified using ELISA.

Where [1] appears, read: FIG. 4, high dose Dexamethasone 10^−6 M.

On to `CCCCCC(=O)O[C@]1(C(C)=O)CC[C@H]2[C@@H]3CCC4=CC(=O)CC[C@]4(C)[C@H]3CC[C@@]21C` [17HPC, 17α-HYDROXYPROGESTERONE CAPROATE], for which the “highest improvement rate in Imax” value under setting [1] is on record as 18%. Moreover, under setting [1], the “improvement rate in Imax at all dose levels” value is 16-18%. Further, the “PHA-induced IL-2 level” value is reported as 1595 pg/mL (Dexamethasone 10^−10 M + 17HPC 10^−5M), 1805 pg/mL (Dexamethasone 10^−10 M + 17HPC 10^−7M) and 2119 pg/mL (Dexamethasone 10^−10 M + 17HPC 10^−10 M). Further, for the setting “FIG. 6, Dexamethasone 10^−6 M”, the “subjects with more than 10% improvement in % maximal Dexamethasone inhibition” value is on record as “Ten out of 11”.

These data come from patent US20110262502A1, “PULMONARY DELIVERY OF 17-HYDROXYPROGESTERONE CAPROATE (17-HPC)” (Prairie Pharmaceuticals LLC, priority 2010, published 2011).
